Patent US11866720B2, “Transgenic or non-transgenic plants with mutated protoporphyrinogen oxidase having increased tolerance to herbicides” (priority 2013, dated 2024)
Like-named read-outs stand apart in the source and are kept apart here.

Test system: transgenic soybean expressing mutated PPO
Type: in vivo, Glycine max
Details: T1 soybean, field
Wherever injury (1-5 point scale) is given: key: 1: no obvious damage (no phytotoxicity); 2: minor amount of leaf damage, plant will survive; 3: moderate amount of leaf damage, plant will survive; 4: severe amount of leaf damage, plant will survive; 5: no surviving plants - all plants dead/dying.

`CC(C)N(C)S(=O)(=O)NC(=O)c1cc(-n2c(=O)cc(C(F)(F)F)n(C)c2=O)c(F)cc1Cl` [Saflufenacil, saflufenacil] was tested, and the “Injury rating (1-5 point scale)” value (AmtuPPX2L_R128A_F420V (event 10), saflufenacil: treatment 1 150 g ai/ha, treatment 2 0, 7 DAT) was 3, the “Injury rating (1-5 point scale)” value (AmtuPPX2L_R128A_F420V (event 10), saflufenacil: treatment 1 300 g ai/ha, treatment 2 300 g ai/ha, 14 DAT) was 3 and the “Injury rating (1-5 point scale)” value (SDS-10533 LTM382-2 AmtuPPX2L_F420L, Saflufenacil (75 gai/ha), 3 days after treatment) was 2.5. The “Injury rating (1-5 point scale)” value (SDS-10533 LTM382-2 AmtuPPX2L_F420L, Saflufenacil (150 gai/ha), 3 days after treatment) was 2.5, the “Injury rating (1-5 point scale)” value (SDS-10544 LTM382-2 AmtuPPX2L_F420L, Saflufenacil (75 gai/ha), 3 days after treatment) was 2.5 and the “Injury rating (1-5 point scale)” value (SDS-10544 LTM382-2 AmtuPPX2L_F420L, Saflufenacil (150 gai/ha), 3 days after treatment) was 2.5. For the same compound, the “Injury rating (1-5 point scale)” value (SDS-10558 LTM382-2 AmtuPPX2L_F420L, Saflufenacil (75 gai/ha), 3 days after treatment) was 2.5, the “Injury rating (1-5 point scale)” value (SDS-10558 LTM382-2 AmtuPPX2L_F420L, Saflufenacil (150 gai/ha), 3 days after treatment) was 2 and the “Injury rating (1-5 point scale)” value (SDS-10562 LTM377-1 AmtuPPX2L_dG210, Saflufenacil (75 gai/ha), 3 days after treatment) was 4. The “Injury rating (1-5 point scale)” value (SDS-10562 LTM377-1 AmtuPPX2L_dG210, Saflufenacil (150 gai/ha), 3 days after treatment) was 4, the “Injury rating (1-5 point scale)” value (SDS-10566 LTM377-1 AmtuPPX2L_dG210, Saflufenacil (75 gai/ha), 3 days after treatment) was 4 and the “Injury rating (1-5 point scale)” value (SDS-10566 LTM377-1 AmtuPPX2L_dG210, Saflufenacil (150 gai/ha), 3 days after treatment) was 4. The “Injury rating (1-5 point scale)” value (SDS-10633 LTM383-1 AmtuPPX2L_F420M, Saflufenacil (75 gai/ha), 3 days after treatment) was 3, the “Injury rating (1-5 point scale)” value (SDS-10633 LTM383-1 AmtuPPX2L_F420M, Saflufenacil (150 gai/ha), 3 days after treatment) was 3 and the “Injury rating (1-5 point scale)” value (SDS-10635 LTM383-1 AmtuPPX2L_F420M, Saflufenacil (75 gai/ha), 3 days after treatment) was 3.5. For the same compound, the “Injury rating (1-5 point scale)” value (SDS-10635 LTM383-1 AmtuPPX2L_F420M, Saflufenacil (150 gai/ha), 3 days after treatment) was 3.5, the “Injury rating (1-5 point scale)” value (SDS-10642 LTM384-1 AmtuPPX2L_R128A_F420L, Saflufenacil (75 gai/ha), 3 days after treatment) was 2 and the “Injury rating (1-5 point scale)” value (SDS-10642 LTM384-1 AmtuPPX2L_R128A_F420L, Saflufenacil (150 gai/ha), 3 days after treatment) was 2. For the same compound, the “Injury rating (1-5 point scale)” value (SDS-10645 LTM383-1 AmtuPPX2L_F420M, Saflufenacil (75 gai/ha), 3 days after treatment) was 4, the “Injury rating (1-5 point scale)” value (SDS-10645 LTM383-1 AmtuPPX2L_F420M, Saflufenacil (150 gai/ha), 3 days after treatment) was 3 and the “Injury rating (1-5 point scale)” value (SDS-10646 LTM383-1 AmtuPPX2L_F420M, Saflufenacil (75 gai/ha), 3 days after treatment) was 2.5. The “Injury rating (1-5 point scale)” value (SDS-10646 LTM383-1 AmtuPPX2L_F420M, Saflufenacil (150 gai/ha), 3 days after treatment) was 2.5, the “injury (1-5 point scale)” value (SDS-10648 AmtuPPX2L R128A_F420I, Saflufenacil 75 g ai/ha, 3 days after treatment) was 2 and the “injury (1-5 point scale)” value (SDS-10648 AmtuPPX2L R128A_F420I, Saflufenacil 150 g ai/ha, 3 days after treatment) was 2. For the same compound, the “Injury rating (1-5 point scale)” value (SDS-10648 LTM386-1 AmtuPPX2L_R128A_F420I, Saflufenacil (75 gai/ha), 3 days after treatment) was 3, the “Injury rating (1-5 point scale)” value (SDS-10648 LTM386-1 AmtuPPX2L_R128A_F420I, Saflufenacil (150 gai/ha), 3 days after treatment) was 3 and the “Injury rating (1-5 point scale)” value (SDS-10656 LTM377-1 AmtuPPX2L_dG210, Saflufenacil (75 gai/ha), 3 days after treatment) was 3.5. The “Injury rating (1-5 point scale)” value (SDS-10656 LTM377-1 AmtuPPX2L_dG210, Saflufenacil (150 gai/ha), 3 days after treatment) was 3.5, the “Injury rating (1-5 point scale)” value (SDS-10658 LTM386-1 AmtuPPX2L_R128A_F420I, Saflufenacil (75 gai/ha), 3 days after treatment) was 3.5 and the “Injury rating (1-5 point scale)” value (SDS-10658 LTM386-1 AmtuPPX2L_R128A_F420I, Saflufenacil (150 gai/ha), 3 days after treatment) was 3.5. The “Injury rating (1-5 point scale)” value (SDS-10761 LTM383-1 AmtuPPX2L_F420M, Saflufenacil (75 gai/ha), 3 days after treatment) was 3, the “Injury rating (1-5 point scale)” value (SDS-10761 LTM383-1 AmtuPPX2L_F420M, Saflufenacil (150 gai/ha), 3 days after treatment) was 3 and the “Injury rating (1-5 point scale)” value (SDS-10776 LTM386-1 AmtuPPX2L_R128A_F420I, Saflufenacil (75 gai/ha), 3 days after treatment) was 2. The “Injury rating (1-5 point scale)” value (SDS-10776 LTM386-1 AmtuPPX2L_R128A_F420I, Saflufenacil (150 gai/ha), 3 days after treatment) was 2.5, the “Injury rating (1-5 point scale)” value (SDS-10787 LTM384-1 AmtuPPX2L_R128A_F420L, Saflufenacil (75 gai/ha), 3 days after treatment) was 3 and the “Injury rating (1-5 point scale)” value (SDS-10787 LTM384-1 AmtuPPX2L_R128A_F420L, Saflufenacil (150 gai/ha), 3 days after treatment) was 2.5. The “injury (1-5 point scale)” value (SDS-10791 AmtuPPX2L R128A_F420I, Saflufenacil 75 g ai/ha, 3 days after treatment) was 2, the “injury (1-5 point scale)” value (SDS-10791 AmtuPPX2L R128A_F420I, Saflufenacil 150 g ai/ha, 3 days after treatment) was 2 and the “Injury rating (1-5 point scale)” value (SDS-10791 LTM386-1 AmtuPPX2L_R128A_F420I, Saflufenacil (75 gai/ha), 3 days after treatment) was 2. The “Injury rating (1-5 point scale)” value (SDS-10791 LTM386-1 AmtuPPX2L_R128A_F420I, Saflufenacil (150 gai/ha), 3 days after treatment) was 2, the “Injury rating (1-5 point scale)” value (SDS-10985 LTM385-1 AmtuPPX2L_R128A_F420M, Saflufenacil (75 gai/ha), 3 days after treatment) was 2 and the “Injury rating (1-5 point scale)” value (SDS-10985 LTM385-1 AmtuPPX2L_R128A_F420M, Saflufenacil (150 gai/ha), 3 days after treatment) was 2. The “Injury rating (1-5 point scale)” value (SDS-10990 LTM385-1 AmtuPPX2L_R128A_F420M, Saflufenacil (75 gai/ha), 3 days after treatment) was 2.5, the “Injury rating (1-5 point scale)” value (SDS-10990 LTM385-1 AmtuPPX2L_R128A_F420M, Saflufenacil (150 gai/ha), 3 days after treatment) was 2.5 and the “Injury rating (1-5 point scale)” value (SDS-10998 LTM387-1 AmtuPPX2L_R128A_F420V, Saflufenacil (75 gai/ha), 3 days after treatment) was 2. The “Injury rating (1-5 point scale)” value (SDS-10998 LTM387-1 AmtuPPX2L_R128A_F420V, Saflufenacil (150 gai/ha), 3 days after treatment) was 2, the “Injury rating (1-5 point scale)” value (SDS-11011 LTM385-1 AmtuPPX2L_R128A_F420M, Saflufenacil (75 gai/ha), 3 days after treatment) was 2 and the “Injury rating (1-5 point scale)” value (SDS-11011 LTM385-1 AmtuPPX2L_R128A_F420M, Saflufenacil (150 gai/ha), 3 days after treatment) was 2. For the same compound, the “injury (1-5 point scale)” value (SDS-11014 AmtuPPX2L R128A_F420I, Saflufenacil 75 g ai/ha, 3 days after treatment) was 2, the “injury (1-5 point scale)” value (SDS-11014 AmtuPPX2L R128A_F420I, Saflufenacil 150 g ai/ha, 3 days after treatment) was 2 and the “Injury rating (1-5 point scale)” value (SDS-11014 LTM386-1 AmtuPPX2L_R128A_F420I, Saflufenacil (75 gai/ha), 3 days after treatment) was 2. For the same compound, the “Injury rating (1-5 point scale)” value (SDS-11014 LTM386-1 AmtuPPX2L_R128A_F420I, Saflufenacil (150 gai/ha), 3 days after treatment) was 2, the “injury (1-5 point scale)” value (SDS-11034 AmtuPPX2L L397D_F420V, Saflufenacil 75 g ai/ha, 3 days after treatment) was 2 and the “injury (1-5 point scale)” value (SDS-11034 AmtuPPX2L L397D_F420V, Saflufenacil 150 g ai/ha, 3 days after treatment) was 2. The “Injury rating (1-5 point scale)” value (SDS-11034 LTM387-1 AmtuPPX2L_R128A_F420V, Saflufenacil (75 gai/ha), 3 days after treatment) was 3, the “Injury rating (1-5 point scale)” value (SDS-11034 LTM387-1 AmtuPPX2L_R128A_F420V, Saflufenacil (150 gai/ha), 3 days after treatment) was 2 and the “injury (1-5 point scale)” value (SDS-11035 AmtuPPX2L R128A_F420V, Saflufenacil 75 g ai/ha, 3 days after treatment) was 2. The “injury (1-5 point scale)” value (SDS-11035 AmtuPPX2L R128A_F420V, Saflufenacil 150 g ai/ha, 3 days after treatment) was 2, the “Injury rating (1-5 point scale)” value (SDS-11035 LTM387-1 AmtuPPX2L_R128A_F420V, Saflufenacil (75 gai/ha), 3 days after treatment) was 2 and the “Injury rating (1-5 point scale)” value (SDS-11035 LTM387-1 AmtuPPX2L_R128A_F420V, Saflufenacil (150 gai/ha), 3 days after treatment) was 2. For the same compound, the “Injury rating (1-5 point scale)” value (SDS-11036 LTM386-1 AmtuPPX2L_R128A_F420I, Saflufenacil (75 gai/ha), 3 days after treatment) was 2.5, the “Injury rating (1-5 point scale)” value (SDS-11036 LTM386-1 AmtuPPX2L_R128A_F420I, Saflufenacil (150 gai/ha), 3 days after treatment) was 2.5 and the “injury (1-5 point scale)” value (SDS-11052 AmtuPPX2L R128A_F420M, Saflufenacil 75 g ai/ha, 3 days after treatment) was 2. For the same compound, the “injury (1-5 point scale)” value (SDS-11052 AmtuPPX2L R128A_F420M, Saflufenacil 150 g ai/ha, 3 days after treatment) was 2, the “Injury rating (1-5 point scale)” value (SDS-11052 LTM385-1 AmtuPPX2L_R128A_F420M, Saflufenacil (75 gai/ha), 3 days after treatment) was 3 and the “Injury rating (1-5 point scale)” value (SDS-11052 LTM385-1 AmtuPPX2L_R128A_F420M, Saflufenacil (150 gai/ha), 3 days after treatment) was 3. For the same compound, the “Injury rating (1-5 point scale)” value (SDS-11105 LTM387-1 AmtuPPX2L_R128A_F420V, Saflufenacil (75 gai/ha), 3 days after treatment) was 2.5, the “Injury rating (1-5 point scale)” value (SDS-11105 LTM387-1 AmtuPPX2L_R128A_F420V, Saflufenacil (150 gai/ha), 3 days after treatment) was 2.5 and the “Injury rating (1-5 point scale)” value (SDS-11110 LTM387-1 AmtuPPX2L_R128A_F420V, Saflufenacil (75 gai/ha), 3 days after treatment) was 2.5. For the same compound, the “Injury rating (1-5 point scale)” value (SDS-11110 LTM387-1 AmtuPPX2L_R128A_F420V, Saflufenacil (150 gai/ha), 3 days after treatment) was 2.5, the “Injury rating (1-5 point scale)” value (SDS-11111 LTM386-1 AmtuPPX2L_R128A_F420I, Saflufenacil (75 gai/ha), 3 days after treatment) was 2.5 and the “Injury rating (1-5 point scale)” value (SDS-11111 LTM386-1 AmtuPPX2L_R128A_F420I, Saflufenacil (150 gai/ha), 3 days after treatment) was 2.5. The “Injury rating (1-5 point scale)” value (SDS-11118 LTM386-1 AmtuPPX2L_R128A_F420I, Saflufenacil (75 gai/ha), 3 days after treatment) was 2, the “Injury rating (1-5 point scale)” value (SDS-11118 LTM386-1 AmtuPPX2L_R128A_F420I, Saflufenacil (150 gai/ha), 3 days after treatment) was 2 and the “Injury rating (1-5 point scale)” value (Wildtype Jake, Saflufenacil (75 gai/ha), 3 days after treatment (Table 11e)) was 5. For the same compound, the “Injury rating (1-5 point scale)” value (Wildtype Jake, Saflufenacil (75 gai/ha), 3 days after treatment (Table 11d)) was 5, the “Injury rating (1-5 point scale)” value (Wildtype Jake, Saflufenacil (150 gai/ha), 3 days after treatment (Table 11e)) was 5 and the “Injury rating (1-5 point scale)” value (Wildtype Jake, Saflufenacil (150 gai/ha), 3 days after treatment (Table 11d)) was 5. For the same compound, the “injury (1-5 point scale)” value (wild type, Saflufenacil 75 g ai/ha, 3 days after treatment) was 5, the “injury (1-5 point scale)” value (wild type, Saflufenacil 150 g ai/ha, 3 days after treatment) was 5 and the “Injury rating (1-5 point scale)” value (wild type, saflufenacil: treatment 1 150 g ai/ha, treatment 2 0, 7 DAT) was 5. The “Injury rating (1-5 point scale)” value (wild type, saflufenacil: treatment 1 300 g ai/ha, treatment 2 300 g ai/ha, 14 DAT) was 5.
